{
  "source": "paper PMC10044120",
  "about": "“Potent and selective covalent inhibition of the papain-like protease from SARS-CoV-2” (Nature Communications, 2023)",
  "key": {"[1]": {"system": "SARS-CoV-2 Omicron (B.1.1.529)", "test": "microbe, parasite or virus in culture", "assay_type": "cell-based", "details": "Omicron (B1.1.529), Caco-2"}, "Vero E6 cells [2]": {"system": "Vero E6 cells", "details": "for Percent Cytotoxicity (Neutral Red): Vero E6"}, "SARS-CoV-2 USA-WA1/2020 [3]": {"system": "SARS-CoV-2 USA-WA1/2020", "test": "CPE assay, neutral red, Vero E6 cells with 2 μM CP-100356, USA-WA1/2020", "assay_type": "cell-based", "details": "for Percent Cytopathic Effect (Neutral Red): USA-WA1/2020"}, "[4]": {"system": "SARS-CoV-2 Delta (B.1.617.2)", "test": "microbe, parasite or virus in culture", "assay_type": "cell-based", "details": "Delta (B1.617.2), Caco-2"}, "Caco-2 cells": {"system": "Caco-2 cells", "details": "for Percent Cytotoxicity (Neutral Red): Caco-2"}, "SARS-CoV-2 USA-WA1/2020 [5]": {"system": "SARS-CoV-2 USA-WA1/2020", "test": "microbe, parasite or virus in culture", "assay_type": "cell-based", "details": "for Virus Titer: USA-WA1/2020"}, "[6]": {"system": "SARS-CoV-2 Delta (B.1.617.2)", "test": "CPE assay, neutral red, Vero E6 cells with 2 μM CP-100356, Delta", "assay_type": "cell-based", "details": "Delta (B1.617.2), Vero E6, 2 μM CP-100356"}, "[7]": {"system": "SARS-CoV-2 isolate USA-WA1/2020", "test": "microbe, parasite or virus in culture", "details": "Severe acute respiratory syndrome coronavirus 2, Vero C1008, read-out: cytopathic effect, % cell viability"}, "UCH-L3": {"system": "UCH-L3", "details": "cited from earlier work"}, "UCH-L1": {"system": "UCH-L1", "details": "cited from earlier work"}, "Vero E6 cells [8]": {"system": "Vero E6 cells", "details": "African green monkey"}, "[9]": {"system": "SARS-CoV-2 isolate USA-WA1/2020", "details": "African green monkey"}, "HAUSP": {"system": "HAUSP", "details": "cited from earlier work"}, "in vitro": {"test": "in vitro", "details": "African green monkey, cytotoxicity, %cell viability"}, "deISGylase USP18": {"target": "deISGylase USP18", "details": "cited from earlier work"}},
  "note": "Values joined by “and” are separate entries in the source; they are usually repeats but may differ in a detail not shown here. Equal values may be shown once. Read-outs that look alike come from different tables or passages of the source.",
  "data": [
    {"smiles": "O=c1nc(NO)ccn1[C@@H]1O[C@H](CO)[C@@H](O)[C@H]1O", "note": "[EIDD-1931]", "values": [
      {"measurement": "EC90", "setting": "[1]", "value": 2.9, "unit": "µM"},
      {"measurement": "CC50", "setting": "Vero E6 cells [2]; Vero E6, 2 μM CP-100356, Delta rows", "value": "> 100", "unit": "µM"},
      {"measurement": "CC50", "setting": "Vero E6 cells [2]; Vero E6, 2 μM CP-100356, Omicron rows", "value": "> 100", "unit": "µM"},
      {"measurement": "CC50", "setting": "Vero E6 cells [2]; Vero E6, 2 μM CP-100356, USA-WA1/2020 rows", "value": "> 100", "unit": "µM"},
      {"measurement": "Percent Cytotoxicity (Neutral Red)", "setting": "Vero E6 cells [2]; SARS2-733 (Delta set), 0.1 µg/mL", "value": 2.1, "unit": "%"},
      {"measurement": "Percent Cytotoxicity (Neutral Red)", "setting": "Vero E6 cells [2]; SARS2-733 (Delta set), 1 µg/mL", "value": 5.1, "unit": "%"},
      {"measurement": "Percent Cytotoxicity (Neutral Red)", "setting": "Vero E6 cells [2]; SARS2-733 (Delta set), 10 µg/mL", "value": 36.7, "unit": "%"},
      {"measurement": "Percent Cytotoxicity (Neutral Red)", "setting": "Vero E6 cells [2]; SARS2-733 (Delta set), 100 µg/mL", "value": 48.2, "unit": "%"},
      {"measurement": "Percent Cytotoxicity (Neutral Red)", "setting": "Vero E6 cells [2]; SARS2-733 (Omicron set), 0.1 µg/mL", "value": 0.0, "unit": "%"},
      {"measurement": "Percent Cytotoxicity (Neutral Red)", "setting": "Vero E6 cells [2]; SARS2-733 (Omicron set), 1 µg/mL", "value": 0.0, "unit": "%"},
      {"measurement": "Percent Cytotoxicity (Neutral Red)", "setting": "Vero E6 cells [2]; SARS2-733 (Omicron set), 10 µg/mL", "value": 28.4, "unit": "%"},
      {"measurement": "Percent Cytotoxicity (Neutral Red)", "setting": "Vero E6 cells [2]; SARS2-733 (Omicron set), 100 µg/mL", "value": 45.6, "unit": "%"},
      {"measurement": "Percent Cytotoxicity (Neutral Red)", "setting": "Vero E6 cells [2]; SARS2-735, 0.1 µg/mL", "value": 0.0, "unit": "%"},
      {"measurement": "Percent Cytotoxicity (Neutral Red)", "setting": "Vero E6 cells [2]; SARS2-735, 1 µg/mL", "value": 0.0, "unit": "%"},
      {"measurement": "Percent Cytotoxicity (Neutral Red)", "setting": "Vero E6 cells [2]; SARS2-735, 10 µg/mL", "value": 23.0, "unit": "%"},
      {"measurement": "Percent Cytotoxicity (Neutral Red)", "setting": "Vero E6 cells [2]; SARS2-735, 100 µg/mL", "value": 38.9, "unit": "%"},
      {"measurement": "EC50", "setting": "SARS-CoV-2 USA-WA1/2020 [3]; USA-WA1/2020, Vero E6, 2 μM CP-100356", "value": 0.3, "unit": "µM"},
      {"measurement": "Percent Cytopathic Effect (Neutral Red)", "setting": "SARS-CoV-2 USA-WA1/2020 [3]; 0.1 µg/mL", "value": 95.9, "unit": "%"},
      {"measurement": "Percent Cytopathic Effect (Neutral Red)", "setting": "SARS-CoV-2 USA-WA1/2020 [3]; 1 µg/mL", "value": 0.0, "unit": "%"},
      {"measurement": "Percent Cytopathic Effect (Neutral Red)", "setting": "SARS-CoV-2 USA-WA1/2020 [3]; 10 µg/mL", "value": 0.559, "unit": "%"},
      {"measurement": "Percent Cytopathic Effect (Neutral Red)", "setting": "SARS-CoV-2 USA-WA1/2020 [3]; 100 µg/mL", "value": 0.0, "unit": "%"},
      {"measurement": "EC90", "setting": "[4]", "value": 4.9, "unit": "µM"},
      {"measurement": "CC50", "setting": "Caco-2 cells; Caco-2, Delta rows", "value": "> 100", "unit": "µM"},
      {"measurement": "CC50", "setting": "Caco-2 cells; Caco-2, Omicron rows", "value": "> 100", "unit": "µM"},
      {"measurement": "CC50", "setting": "Caco-2 cells; Caco-2, USA-WA1/2020 rows", "value": 94, "unit": "µM"},
      {"measurement": "Percent Cytotoxicity (Neutral Red)", "setting": "Caco-2 cells; SARS2-740 (Delta set), 0.1 µg/mL", "value": 7.9, "unit": "%"},
      {"measurement": "Percent Cytotoxicity (Neutral Red)", "setting": "Caco-2 cells; SARS2-740 (Delta set), 1 µg/mL", "value": 14.7, "unit": "%"},
      {"measurement": "Percent Cytotoxicity (Neutral Red)", "setting": "Caco-2 cells; SARS2-740 (Delta set), 10 µg/mL", "value": 5.3, "unit": "%"},
      {"measurement": "Percent Cytotoxicity (Neutral Red)", "setting": "Caco-2 cells; SARS2-740 (Delta set), 32 µg/mL", "value": 15.2, "unit": "%"},
      {"measurement": "Percent Cytotoxicity (Neutral Red)", "setting": "Caco-2 cells; SARS2-740 (Delta set), 100 µg/mL", "value": 30.0, "unit": "%"},
      {"measurement": "Percent Cytotoxicity (Neutral Red)", "setting": "Caco-2 cells; SARS2-740 (Omicron set), 0.1 µg/mL", "value": 0.118, "unit": "%"},
      {"measurement": "Percent Cytotoxicity (Neutral Red)", "setting": "Caco-2 cells; SARS2-740 (Omicron set), 1 µg/mL", "value": 4.7, "unit": "%"},
      {"measurement": "Percent Cytotoxicity (Neutral Red)", "setting": "Caco-2 cells; SARS2-740 (Omicron set), 10 µg/mL", "value": 1.2, "unit": "%"},
      {"measurement": "Percent Cytotoxicity (Neutral Red)", "setting": "Caco-2 cells; SARS2-740 (Omicron set), 32 µg/mL", "value": 6.1, "unit": "%"},
      {"measurement": "Percent Cytotoxicity (Neutral Red)", "setting": "Caco-2 cells; SARS2-740 (Omicron set), 100 µg/mL", "value": 24.6, "unit": "%"},
      {"measurement": "Percent Cytotoxicity (Neutral Red)", "setting": "Caco-2 cells; SARS2-740 (USA-WA1/2020 set), 0.1 µg/mL", "value": 15.6, "unit": "%"},
      {"measurement": "Percent Cytotoxicity (Neutral Red)", "setting": "Caco-2 cells; SARS2-740 (USA-WA1/2020 set), 1 µg/mL", "value": 13.4, "unit": "%"},
      {"measurement": "Percent Cytotoxicity (Neutral Red)", "setting": "Caco-2 cells; SARS2-740 (USA-WA1/2020 set), 10 µg/mL", "value": 13.8, "unit": "%"},
      {"measurement": "Percent Cytotoxicity (Neutral Red)", "setting": "Caco-2 cells; SARS2-740 (USA-WA1/2020 set), 32 µg/mL", "value": 17.6, "unit": "%"},
      {"measurement": "Percent Cytotoxicity (Neutral Red)", "setting": "Caco-2 cells; SARS2-740 (USA-WA1/2020 set), 100 µg/mL", "value": 51.9, "unit": "%"},
      {"measurement": "EC90", "setting": "SARS-CoV-2 USA-WA1/2020 [5]; USA-WA1/2020, Caco-2", "value": 0.12, "unit": "µM"},
      {"measurement": "Virus Titer", "setting": "SARS-CoV-2 USA-WA1/2020 [5]; 0.1 µg/mL", "value": "3.7 CCID50/mL (Log10)"},
      {"measurement": "Virus Titer", "setting": "SARS-CoV-2 USA-WA1/2020 [5]; 1 µg/mL", "value": "<0.7 CCID50/mL (Log10)"},
      {"measurement": "Virus Titer", "setting": "SARS-CoV-2 USA-WA1/2020 [5]; 10 µg/mL", "value": "<0.7 CCID50/mL (Log10)"},
      {"measurement": "Virus Titer", "setting": "SARS-CoV-2 USA-WA1/2020 [5]; 32 µg/mL", "value": "<0.7 CCID50/mL (Log10)"},
      {"measurement": "Virus Titer", "setting": "SARS-CoV-2 USA-WA1/2020 [5]; 100 µg/mL", "value": "<0.7 CCID50/mL (Log10)"},
      {"measurement": "EC50", "setting": "[6]", "value": 0.31, "unit": "µM"}
    ]},
    {"smiles": "Cc1ccc(N)cc1C(=O)N[C@H](C)c1cccc2ccccc12", "note": "[GRL0617, reference compound]", "values": [
      {"measurement": "inhibition at 2.08 µM", "setting": "[7]", "value": 15.2, "unit": "%"},
      {"measurement": "inhibition at 8.33 µM", "setting": "[7]", "value": 7.11, "unit": "%"},
      {"measurement": "inhibition at […]", "setting": "[7]", "value": "11.5% and 6.73% and 8.44%"},
      {"measurement": "IC50", "setting": "UCH-L3", "value": "> 100", "unit": "µM"},
      {"measurement": "IC50", "setting": "UCH-L1", "value": "> 100", "unit": "µM"},
      {"measurement": "cytotoxicity, %cell viability", "setting": "Vero E6 cells [8]; 2.08 µM", "value": 100.64, "unit": "%"},
      {"measurement": "cytotoxicity, %cell viability", "setting": "Vero E6 cells [8]; 8.33 µM", "value": 100.01, "unit": "%"},
      {"measurement": "cytotoxicity, %cell viability", "setting": "Vero E6 cells [8]; 16.65 µM", "value": 87.87, "unit": "%"},
      {"measurement": "inhibition", "setting": "[9]; 2.08 µM", "value": 8.22, "unit": "%"},
      {"measurement": "inhibition", "setting": "[9]; 8.33 µM", "value": 3.62, "unit": "%"},
      {"measurement": "IC50", "setting": "HAUSP", "value": "> 100", "unit": "µM"},
      {"measurement": "viability at 2.08 µM", "setting": "in vitro", "value": 99.1, "unit": "%"},
      {"measurement": "viability at 8.33 µM", "setting": "in vitro", "value": 93.3, "unit": "%"},
      {"measurement": "viability at 16.65 µM", "setting": "in vitro", "value": 80.3, "unit": "%"},
      {"measurement": "viability at […]", "setting": "in vitro", "value": "104% and 102% and 77.8% and 100%"},
      {"measurement": "IC50", "setting": "deISGylase USP18", "value": "> 100", "unit": "µM"}
    ]}
  ]
}
